These results are taken from US20230404914A1 (priority 2020, published 2023).

Series [1] can be described thus: Clinical study: plasma concentrations after OTF administration. The following applies: for plasma level following OTF compared to intravenous administration of 20 mg (S)-ketamine / Cmax: human; for plasma level following OTF compared to intravenous administration of 20 mg (S)-ketamine: in vivo; for Cmax: plasma, Cmax plasma concentration.
The nature of series [2]: Clinical study: pharmacokinetic model (NONMEM), Tmax, AUC, oral bioavailability.
A short description of series [3]: Clinical study: safety, compatibility, adverse events.
For series [4] the following is noted: averaged; cited from earlier work.
Setting [5] is: All data, 50 mg OTF based on formulation 15.
[6] abbreviates: All data, 2 × 50 mg OTF based on formulation 15.
Setting [7] is: Buccally, 50 mg OTF based on formulation 15.
[8] abbreviates: Buccally, 2 × 50 mg OTF based on formulation 15.
The mark [9] stands for this setting: Sublingually, 50 mg OTF based on formulation 15.
Where [10] appears, read: Sublingually, 2 × 50 mg OTF based on formulation 15.
[11] abbreviates: 50 mg (S)-Ketamine OTF, calculated using PK model.
Setting [12] is: 100 mg (S)-Ketamine OTF, calculated using PK model.
Where [13] appears, read: human, plasma, other: sublingual or buccal, 50 mg.
[14] abbreviates: human, plasma, other: sublingual or buccal, 100 mg.

Turning to `N[C@]1(c2ccccc2Cl)CCC[C@H](O)C1=O` [(S)-Hydroxynorketamine], the Cmax plasma concentration is 94 ng/mL in series [1] (setting [5]); 171 ng/mL in series [1] (setting [6]); 81 ng/mL in series [1] (setting [7]); 165 ng/mL in series [1] (setting [8]); 98 ng/mL in series [1] (setting [9]); 173 ng/mL in series [1] (setting [10]). Besides, the “plasma level following OTF compared to intravenous administration of 20 mg (S)-ketamine” value in series [1] is “higher following administration of an OTF”. Besides, the Tmax in series [2] (setting [11]) is listed as 81 (69-92) min; in series [2] (setting [12]), 109 (89-130) min.

On to `N[C@]1(c2ccccc2Cl)CCCCC1=O` [(S)-Norketamine], for which the Cmax plasma concentration was found to be 254 ng/mL in series [1] (setting [5]); 330 ng/mL in series [1] (setting [6]); 242 ng/mL in series [1] (setting [7]); 450 ng/mL in series [1] (setting [8]); 258 ng/mL in series [1] (setting [9]); 323 ng/mL in series [1] (setting [10]). Further, the “plasma level following OTF compared to intravenous administration of 20 mg (S)-ketamine” value in series [1] is “higher following administration of an OTF”. Further, the Tmax in series [2] (setting [11]) is reported as 61 (53-68) min; in series [2] (setting [12]), 78 (66-91) min.

One may read the Cmax as the highest concentration seen after dosing. For orientation: AUC(0-t) means exposure summed from dosing to a finite time, without extrapolation to infinity. A higher AUC(0-t) goes with more exposure. For `CNC1(c2ccccc2Cl)CCCCC1=O` (racemic) [(S)-ketamine, (S)-(±)-2-(2-chlorophenyl)-2-(methylamino)cyclohexan-1-one], in series [3] (20 mg (S)-ketamine IV), the “Dizziness (prevalence of events)” value amounted to 4, the “Drowsiness (prevalence of events)” value is recorded as 3, the “Dry eyes (prevalence of events)” value is listed as 1 and the “Headache (prevalence of events)” value came to 3. Also, in series [3] (20 mg (S)-ketamine IV), the “High blood pressure (SBP >180 mm Hg) (prevalence of events)” value came to 2, the “Nausea (prevalence of events)” value worked out at 2, the “Sweating (prevalence of events)” value came out at 1 and the “Total side effects (prevalence of events)” value (from here on “Total side effects”) was 17. Also, the “Whistling noise in the ear (prevalence of events)” value in series [3] (20 mg (S)-ketamine IV) is 1. Also, in series [3] (50 mg (S)-ketamine OTF), the “Blurred vision (prevalence of events)” value was 1, the “Bradykinesia (prevalence of events)” value was 1, the “Dizziness (prevalence of events)” value is given as 1 and the “Feeling of drunkenness (prevalence of events)” value turned out to be 2. Further, in series [3] (50 mg (S)-ketamine OTF), the “Headache (prevalence of events)” value is given as 1, the “Nausea (prevalence of events)” value worked out at 1 and the “Total side effects” value is 7. Besides, in series [3] (100 mg (S)-ketamine OTF), the “Bradykinesia (prevalence of events)” value came to 1, the “Dizziness (prevalence of events)” value is 3, the “Headache (prevalence of events)” value is reported as 2 and the “Nausea (prevalence of events)” value worked out at 1. Moreover, in series [3] (100 mg (S)-ketamine OTF), the “Numbness of the tongue (prevalence of events)” value worked out at 2 and the “Total side effects” value came out at 9. For the same compound, in series [3] (whole study, OTF and IV), the “adverse events in total” value is 33, the serious adverse events entry is recorded as “None of these was a serious adverse event” and the “test subjects reporting at least one adverse event” value is given as 18. Besides, in series [1], the “plasma level following OTF compared to intravenous administration of 20 mg (S)-ketamine” value is given as “higher for intravenous administration”. This compound also registered a Cmax in series [1] (50 mg, Buccally, 50 mg OTF based on formulation 15) of 117 ng/mL. In series [1] (50 mg, Sublingually, 50 mg OTF based on formulation 15), this compound registered a Cmax of 95 ng/mL. The compound also had a Cmax in series [1] (100 mg, Buccally, 2 × 50 mg OTF based on formulation 15) of 158 ng/mL. In addition, in series [1] (100 mg, Sublingually, 2 × 50 mg OTF based on formulation 15), the Cmax was found to be 138 ng/mL. The same compound registered a Cmax in series [1] (other: sublingual or buccal (all data), 50 mg, All data, 50 mg OTF based on formulation 15) of 101 ng/mL. The Cmax in series [1] (other: sublingual or buccal (all data), 100 mg, All data, 2 × 50 mg OTF based on formulation 15) was 143 ng/mL. Further, in series [4], the lethal dose was 4.2 g/70 kg. Besides, in series [2] (setting [13]), the AUC(0-t) is 139 ng·h/mL and the Tmax is 18.8 min. Further, in series [2] (setting [14]), the AUC(0-t) was 222 ng·h/mL and the Tmax was 19.1 min.
